Active and inactive are the calls of the source.
Experiments:
[1] = Late stage counterscreen for inhibitors of Trypanosoma brucei methionyl tRNA synthetase (MetRS): Luminescence-based cell-based high throughput dose response assay to identify compounds that are cytotoxic to Jurkat human T lymphocyte cells.; format: functional
[2] = Luminescence Cell-Based Dose Retest to Confirm Inhibitors of Cancer Stem Cells. [Related pubchem assays (depositor defined):AID2717, AID2721]; format: functional; conditions: Homo sapiens
[3] = viability loss in HepG2 liver cells – cell-based, ATP luminescence, cherry-pick, set 6, cytotoxicity control, dose response (AID 1053125); format: functional
cells [4] = conditions: A549
Kallikrein-7 = Kallikrein-7 (Homo sapiens, UniProt P49862); assay: Fluorescence Intensity-based biochemical primary high throughput dose response assay to identify activators of kallikrein-7 (K7) zymogen.
[5] = rescue of ΔF508 CFTR function, airway epithelium – human bronchial epithelial cells, plate reader, cherry-pick, two tests, dose response (AID 743267); format: functional, cell-based
cells [6] = format: functional, cell-based
[7] = molecular target: T1, Trace amine-associated receptor 1 (Homo sapiens, UniProt Q96RJ0); assay: Fluorescence-based cell-based high throughput dose response assay to identify agonists of the human trace amine associated receptor 1 (TAAR1).; format: functional
[8] = molecular target: T1, Trace amine-associated receptor 1; assay: Counterscreen for agonists of the human trace amine associated receptor 1 (hTAAR1): Fluorescence-based cell-based high throughput dose response assay to identify hTAAR1 agonist that also desensitize TAAR1 receptor response.; format: functional
cells [9] = format: functional, cell-based; remark: listed apart in the source
[10] = molecular target: T2, Scavenger receptor class B member 1 (Mus musculus, UniProt Q61009); assay: mouse SR-BI DiI-HDL transfer blockers – ldlA[mSR-BI] CHO cells, fluorescence plate reader, dry powder, set 9, dose response (AID 623880); format: functional, cell-based
T2 sequence (Q61009 whole entry): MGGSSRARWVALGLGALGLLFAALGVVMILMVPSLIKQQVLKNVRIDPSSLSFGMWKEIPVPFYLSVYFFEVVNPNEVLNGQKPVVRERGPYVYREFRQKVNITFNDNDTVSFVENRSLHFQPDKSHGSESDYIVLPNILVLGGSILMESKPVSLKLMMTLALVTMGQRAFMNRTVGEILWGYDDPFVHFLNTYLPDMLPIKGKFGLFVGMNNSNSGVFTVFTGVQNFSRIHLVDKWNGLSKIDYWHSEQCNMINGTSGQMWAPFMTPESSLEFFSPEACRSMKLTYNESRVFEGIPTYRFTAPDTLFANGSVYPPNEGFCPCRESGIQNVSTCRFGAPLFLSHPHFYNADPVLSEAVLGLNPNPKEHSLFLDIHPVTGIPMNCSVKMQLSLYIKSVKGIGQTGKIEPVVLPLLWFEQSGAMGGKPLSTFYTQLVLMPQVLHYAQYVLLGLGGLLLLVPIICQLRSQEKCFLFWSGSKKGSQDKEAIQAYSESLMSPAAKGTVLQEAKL

[11] = molecular target: T2, Scavenger receptor class B member 1; assay: blockers of DiI-HDL lipid transfer via SR-BI – cell-based, ldlA[mSR-BI] CHO, DiI fluorescence, dry powder, set 10, dose response (AID 624029); format: functional
HEK293 = assay: viability loss in HEK293T cells – cell-based, ATP luminescence, cherry-pick samples, cytotoxicity control, dose response (AID 687005); format: functional; conditions: Homo sapiens;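 also: cells exposed to compound for 48 hours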
[12] = HEK293 Cytotoxicity Assay Measured in Cell-Based System Using Plate Reader - 7071-01_Inhibitor_Dose_CherryPick_Activity_Set2.; format: functional

T1 sequence (Q96RJ0 whole entry): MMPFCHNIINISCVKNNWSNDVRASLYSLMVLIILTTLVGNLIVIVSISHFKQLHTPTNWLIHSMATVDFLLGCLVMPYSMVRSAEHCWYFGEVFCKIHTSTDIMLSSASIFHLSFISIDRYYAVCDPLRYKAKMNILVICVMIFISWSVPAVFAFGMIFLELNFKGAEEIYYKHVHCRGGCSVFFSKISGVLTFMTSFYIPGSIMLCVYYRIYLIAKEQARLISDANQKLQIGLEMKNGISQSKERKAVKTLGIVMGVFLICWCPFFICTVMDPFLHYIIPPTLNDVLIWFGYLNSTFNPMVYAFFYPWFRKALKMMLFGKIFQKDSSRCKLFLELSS
Sequence of Kallikrein-7 (P49862 whole entry): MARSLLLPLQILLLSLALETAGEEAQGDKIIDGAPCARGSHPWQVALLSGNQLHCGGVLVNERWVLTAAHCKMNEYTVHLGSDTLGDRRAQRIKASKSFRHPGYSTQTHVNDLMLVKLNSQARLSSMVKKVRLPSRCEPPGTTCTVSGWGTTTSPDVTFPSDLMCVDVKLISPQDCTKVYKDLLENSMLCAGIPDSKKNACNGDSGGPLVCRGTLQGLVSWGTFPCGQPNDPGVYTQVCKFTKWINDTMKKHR

For `O=C(CC(=O)Nc1cccc(Cl)c1)NN=Cc1ccccc1`, the IC50 [1] was > 83.3 µM (inactive).

With `CCCCCCc1cc2cc(S(=O)(=O)c3ccc(C)cc3)c(=O)oc2cc1O` the AC50 [2] was 2.46 µM (active), the AC50 [3] was > 52 µM (inactive) and the AC50 (cells [4]) was 37.9 µM (active).

In the case of `Cc1cc(=O)oc2c3c(cc(OCC(=O)NCc4ccncc4)c12)OC(C)(C)CC3`, the EC50 (Kallikrein-7) is reported as > 69.5 µM (inactive).

With `CC(C)Oc1[nH]cnc2c3ccccc3nc1-2` the AC50 [5] was 9.38 µM (active).

With `Cc1ccc2cc(CNCCc3ccccc3C)c(O)nc2c1` the IC50 (cells [6]) was > 29.9 µM (inactive), the EC50 [7] was 2.34 µM (active) and the IC50 [8] was 3.54 µM (active). The EC50 (cells [9]) was > 29.9 µM (inactive).

In the case of `C[C@@H]1CN([C@H](C)CO)C(=O)c2cc(NC(=O)Cc3cn(C)c4ccccc34)ccc2O[C@H]1CN(C)S(=O)(=O)c1ccc(Cl)cc1`, the AC50 [10] is reported as 0.0155 µM (active) and the AC50 [11] is reported as 0.0313 µM (active).

With `CCC(=O)N1[C@@H]2Cn3c(cccc3=O)[C@H]1[C@@H](C(=O)NCc1ccccc1)[C@@H]2CO` the AC50 (HEK293) was 30.2 µM (active) and the AC50 [12] was 30.2 µM (active).
